Reference: PubChem BioAssay AID743473 (The Scripps Research Institute Molecular Screening Center, 2014)

Tests used:
Experiment in all cases: metalloprotease panel inhibitors: MMPs, meprins, late-stage follow-up, selectivity assay for ADAM10 and ADAM17 inhibitor project, biochemical, QFRET, MMP1/2/8/9/10/13/14, Meprin A/B (AID 743473)
[1] = biological target: Collagenase 3 (Homo sapiens) (UniProt P45452); settings: QFRET peptide cleavage, MCA fluorescence, MMP13
MMP9 = settings: QFRET peptide cleavage, MCA fluorescence
MMP1 = settings: QFRET peptide cleavage, MCA fluorescence
MMP14 = settings: QFRET peptide cleavage, MCA fluorescence
MMP10 = settings: QFRET peptide cleavage, MCA fluorescence
Meprin A = settings: QFRET peptide cleavage, MCA fluorescence
MMP2 = settings: QFRET peptide cleavage, MCA fluorescence
MMP8 = settings: QFRET peptide cleavage, MCA fluorescence
Meprin B = settings: QFRET peptide cleavage, MCA fluorescence

SMILES	IC50 [1]	IC50 (MMP9)	IC50 (MMP1)	IC50 (MMP14)	IC50 (MMP10)	IC50 (Meprin A)	IC50 (MMP2)	IC50 (MMP8)	IC50 (Meprin B)
O=C(O)CCC(=O)c1c[nH]c2ccccc12	> 100 µM	> 100 µM	> 100 µM	> 100 µM	> 100 µM	> 100 µM	> 100 µM	> 100 µM	> 100 µM
COc1cccc(C(=O)NNC(=O)C(=O)Nc2ccc(C)c(Cl)c2)c1	> 100 µM	> 100 µM	> 100 µM	> 100 µM	> 100 µM	> 100 µM	> 100 µM	> 100 µM	> 100 µM
CCOc1ccc(NC(=O)CC2SC(=O)N(c3ccccc3)C2=O)cc1 (stereo unspecified)	35.8 µM	3 µM	75 µM	36.9 µM	28.6 µM	> 100 µM	4.7 µM	1.6 µM	> 100 µM
O=C1NC(=O)C(Cc2ccc(Cl)cc2)(c2ccccc2)N1 (stereo unspecified)	> 100 µM	> 100 µM	18.5 µM	> 100 µM	> 100 µM	> 100 µM	> 100 µM	6.4 µM	> 100 µM
